Measurements as given in PubChem BioAssay AID328 (DTP/NCI, 2004).
Values joined by “and” are separate entries in the source; they are usually repeats but may differ in a detail not shown here. Equal values may be shown once. Inconclusive results and toxic doses are left out. The calls were made as follows: active = survival T/C of 150% or more; inactive = T/C below 125% in these data.

System: BDF1 mice, P388 leukemia ip, median survival T/C
Test: NCI In Vivo Anticancer Drug Screen. Data for tumor model P388 Leukemia (intraperitoneal) in B6D2F1 (BDF1) mice
Conditions: endpoint: median survival time, higher = longer survival
Method in brief: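 Each value expresses how treatment altered survival: treated-mouse outcome over vehicle-mouse outcome, both groups bearing the transplanted tumour.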

[1] = dose: 100.0 mg/kg/injection, schedule: Q01DX009 (ip), vehicle: saline with Tween-80
[2] = dose: 200.0 mg/kg/injection, schedule: Q01DX009 (ip), vehicle: saline with Tween-80
[3] = dose: 400.0 mg/kg/injection, schedule: Q01DX009 (ip), vehicle: saline with Tween-80

Measured: T/C

CC(=O)O[C@@H]1c2c(c3c(=O)c4cccc(O)c4c(=O)c=3c2=[N+]=[N-])[C@H](OC(C)=O)[C@@H](OC(C)=O)[C@]1(C)O
inactive: dose: 3.0 mg/kg/injection, schedule: Q01DX009 (ip), vehicle: Klucel (hydroxypropylcellulose) (HPC) 118 % of control | dose: 6.0 mg/kg/injection, schedule: Q01DX009 (ip), vehicle: Klucel (hydroxypropylcellulose) (HPC) 105 % of control

C(=N/NC1=NCCN1)/c1c2ccccc2c(/C=N\NC2=NCCN2)c2ccccc12
active: dose: 1.56 mg/kg/injection, schedule: Q04DX002 (ip), vehicle: saline 209 % of control | dose: 3.12 mg/kg/injection, schedule: Q04DX002 (ip), vehicle: saline 229 % of control | dose: 6.25 mg/kg/injection, schedule: Q04DX002 (ip), vehicle: saline 239 % of control | dose: 12.5 mg/kg/injection, schedule: Q04DX002 (ip), vehicle: saline 209 % of control | dose: 25.0 mg/kg/injection, schedule: Q04DX002 (ip), vehicle: saline 229 % of control | dose: 50.0 mg/kg/injection, schedule: Q04DX002 (ip), vehicle: saline 280 % of control

c1cc[n+]2c(c1)-c1cccc[n+]1CC2
inactive: dose: 3.13 mg/kg/injection, schedule: Q04DX003 (ip), vehicle: saline 100 % of control | dose: 6.25 mg/kg/injection, schedule: Q04DX003 (ip), vehicle: saline 95 % of control | dose: 12.5 mg/kg/injection, schedule: Q04DX003 (ip), vehicle: saline 100 % of control

COc1ccc(C(=O)CC(=O)CC(=O)c2ccccc2)cc1
inactive: dose: 200.0 mg/kg/injection, schedule: Q01DX009 (ip), vehicle: Klucel (hydroxypropylcellulose) (HPC) 86 % of control | dose: 400.0 mg/kg/injection, schedule: Q01DX009 (ip), vehicle: Klucel (hydroxypropylcellulose) (HPC) 90 % of control

CC(=O)C1=CC(=O)NC(=O)C1C(=O)CC(C)C (stereo unspecified)
inactive: dose: 1.56 mg/kg/injection, schedule: Q01DX009 (ip), vehicle: saline + alcohol 115 % of control | dose: 3.13 mg/kg/injection, schedule: Q01DX009 (ip), vehicle: saline + alcohol 123 % of control | dose: 6.25 mg/kg/injection, schedule: Q01DX009 (ip), vehicle: other 118 % of control | dose: 6.25 mg/kg/injection, schedule: Q01DX009 (ip), vehicle: saline + alcohol 106 % of control

CN(C)P(=O)(N(C)C)N1CC1
active: dose: 90.0 mg/kg/injection, schedule: Q04DX003 (ip), vehicle: saline 192 % of control | dose: 100.0 mg/kg/injection, schedule: Q04DX003 (ip), vehicle: saline 157 % of control | dose: 135.0 mg/kg/injection, schedule: Q04DX003 (ip), vehicle: saline 176 % of control | dose: 200.0 mg/kg/injection, schedule: Q04DX003 (ip), vehicle: saline 233 % of control and 211 % of control

COc1cccc(C(O)c2ccncc2)c1OC (stereo unspecified)
inactive: dose: 25.0 mg/kg/injection, schedule: Q04DX003 (ip), vehicle: water 113 % of control | dose: 50.0 mg/kg/injection, schedule: Q04DX003 (ip), vehicle: water 108 % of control | dose: 100.0 mg/kg/injection, schedule: Q04DX003 (ip), vehicle: water 103 % of control | dose: 200.0 mg/kg/injection, schedule: Q04DX003 (ip), vehicle: water 90 % of control | dose: 400.0 mg/kg/injection, schedule: Q04DX003 (ip), vehicle: water 97 % of control

ClC1=C(Cl)C2(Cl)C3(Cl)C(Cl)=C(Cl)C(Cl)(C3c3ccccc3)C2(Cl)C1c1ccccc1 (stereo unspecified)
inactive: [1] 95 % of control | dose: 100.0 mg/kg/injection, schedule: Q04DX003 (ip), vehicle: saline sonified 100 % of control | [2] 95 % of control | dose: 200.0 mg/kg/injection, schedule: Q04DX003 (ip), vehicle: saline sonified 104 % of control | [3] 95 % of control | dose: 400.0 mg/kg/injection, schedule: Q04DX003 (ip), vehicle: saline sonified 90 % of control

C=Cn1ccnc1C(O)(c1ccc(Cl)cc1)c1ccc(Cl)cc1
inactive: [1] 116 % of control

c1coc(CNc2ncnc3nc[nH]c23)c1
inactive: [1] 95 % of control | dose: 100.0 mg/kg/injection, schedule: Q04DX003 (ip), vehicle: saline with Tween-80 91 % of control | [2] 86 % of control | dose: 200.0 mg/kg/injection, schedule: Q04DX003 (ip), vehicle: saline with Tween-80 95 % of control | [3] 100 % of control | dose: 400.0 mg/kg/injection, schedule: Q04DX003 (ip), vehicle: saline with Tween-80 86 % of control

Cn1c2nc3ccccc3c-2nc2ccccc21
inactive: dose: 12.5 mg/kg/injection, schedule: Q04DX003 (ip), vehicle: Klucel (hydroxypropylcellulose) (HPC) 94 % of control | dose: 25.0 mg/kg/injection, schedule: Q04DX003 (ip), vehicle: Klucel (hydroxypropylcellulose) (HPC) 98 % of control | dose: 50.0 mg/kg/injection, schedule: Q04DX003 (ip), vehicle: Klucel (hydroxypropylcellulose) (HPC) 103 % of control | dose: 100.0 mg/kg/injection, schedule: Q04DX003 (ip), vehicle: Klucel (hydroxypropylcellulose) (HPC) 101 % of control | dose: 200.0 mg/kg/injection, schedule: Q04DX003 (ip), vehicle: Klucel (hydroxypropylcellulose) (HPC) 116 % of control

NC(=O)C1(N2CCCCC2)CCN(CCCC(=O)c2ccc(F)cc2)CC1
inactive: dose: 37.5 mg/kg/injection, schedule: Q01DX009 (ip), vehicle: Klucel (hydroxypropylcellulose) (HPC) 107 % of control | dose: 150.0 mg/kg/injection, schedule: Q01DX009 (ip), vehicle: Klucel (hydroxypropylcellulose) (HPC) 117 % of control
